Measured values from the NIST ThermoML archive (doi:10.1016/j.fluid.2015.06.041).
± gives the expanded uncertainty stated by the source.

What was measured:
[1] = 101.33 kPa, Liquid; for viscosity: Capillary tube (Ostwald / Ubbelohde) method; for mass density: Vibrating tube method
[2] = xn = mol fraction of the nth substance listed; settings: 101 kPa, Liquid, x1 = 1; for viscosity: Capillary tube (Ostwald / Ubbelohde) method; for speed of sound: Frequency=2 MHz, Linear variable-path acoustic interferometer; for mass density: Vibrating tube method

Structure (SMILES) | viscosity ([1]; 298.15 K) [mPa·s] | mass density ([1]; 298.15 K) [kg/m3] | viscosity ([1]; 308.15 K) [mPa·s] | mass density ([1]; 308.15 K) [kg/m3] | viscosity ([1]; 318.15 K) [mPa·s] | mass density ([1]; 318.15 K) [kg/m3] | viscosity ([2]; 298.15 K) [mPa·s] | speed of sound ([2]; 298.15 K) [m/s] | mass density ([2]; 298.15 K) [kg/m3] | viscosity ([2]; 308.15 K) [mPa·s] | mass density ([2]; 308.15 K) [kg/m3] | viscosity ([2]; 318.15 K) [mPa·s] | mass density ([2]; 318.15 K) [kg/m3] | viscosity ([2]; 298.18 K) [mPa·s]
ClCCCl [1,2-dichloroethane] | 0.7804 ± 0.024 | 1246.37 ± 0.17 | 0.6744 ± 0.021 | 1231.21 ± 0.16 | 0.5719 ± 0.017 | 1214.55 ± 0.16 | – | – | – | – | – | – | – | –
C1COCCO1 [1,4-dioxane] | 1.178 ± 0.036 | 1027.79 ± 0.11 | 1.009 ± 0.031 | 1016.78 ± 0.11 | 0.8896 ± 0.027 | 1005.24 ± 0.11 | – | – | – | – | – | – | – | –
C1COCCO1 [1,4-dioxane] + ClCCCl | – | – | – | – | – | – | 1.178 ± 0.036 | 1343.4 ± 1.4 | 1027.79 ± 0.11 | 1.009 ± 0.031 | 1016.78 ± 0.11 | 0.8896 ± 0.027 | 1005.24 ± 0.11 | –
NCCO [2-aminoethan-1-ol] | 18.95 ± 0.58 | 1011.79 ± 0.24 | 11.96 ± 0.37 | 1004.68 ± 0.23 | 7.913 ± 0.24 | 998.15 ± 0.23 | – | – | – | – | – | – | – | –
NCCN [ethane-1,2-diamine] | 1.276 ± 0.039 | 894.79 ± 0.23 | 1.107 ± 0.034 | 885.63 ± 0.24 | 0.9445 ± 0.029 | 867.62 ± 0.24 | – | – | – | – | – | – | – | –

Next, values leading:

viscosity ([1]; 298.15 K) [mPa·s] | mass density ([1]; 298.15 K) [kg/m3] | viscosity ([1]; 308.15 K) [mPa·s] | mass density ([1]; 308.15 K) [kg/m3] | viscosity ([1]; 318.15 K) [mPa·s] | mass density ([1]; 318.15 K) [kg/m3] | viscosity ([2]; 298.15 K) [mPa·s] | speed of sound ([2]; 298.15 K) [m/s] | mass density ([2]; 298.15 K) [kg/m3] | viscosity ([2]; 308.15 K) [mPa·s] | mass density ([2]; 308.15 K) [kg/m3] | viscosity ([2]; 318.15 K) [mPa·s] | mass density ([2]; 318.15 K) [kg/m3] | viscosity ([2]; 298.18 K) [mPa·s] | Structure (SMILES)
– | – | – | – | – | – | – | 1343.4 ± 1.4 | 1027.79 ± 0.11 | 1.009 ± 0.031 | 1016.78 ± 0.11 | 0.8896 ± 0.027 | 1005.24 ± 0.11 | 1.178 ± 0.036 | C1COCCO1 [1,4-dioxane] + NCCN
– | – | – | – | – | – | 1.178 ± 0.036 | 1343.4 ± 1.4 | 1027.79 ± 0.11 | 1.009 ± 0.031 | 1016.78 ± 0.11 | 0.8896 ± 0.027 | 1005.24 ± 0.11 | – | C1COCCO1 [1,4-dioxane] + NCCO
